Measurements from ChEMBL document CHEMBL3797055, “Glabridin-chalcone hybrid molecules: drug resistance reversal agent against clinical isolates of methicillin-resistant Staphylococcus aureus” (Medchemcomm, 2016).
In brackets after ≈: the same amount, converted by molar mass.

Tests used:
Type in all cases: functional
[1] = test system: Staphylococcus aureus; assay: Antibacterial activity against clinical isolates of methicillin-resistant Staphylococcus aureus ST10342 by broth microdilution assay
[2] = test system: Staphylococcus aureus; assay: Antibacterial activity against clinical isolates of methicillin-resistant Staphylococcus aureus P4629 by broth microdilution assay
[3] = test system: Staphylococcus aureus; assay: Antibacterial activity against clinical isolates of methicillin-resistant Staphylococcus aureus ST10760 by broth microdilution assay
[4] = test system: Staphylococcus aureus; assay: Antibacterial activity against clinical isolates of methicillin-resistant Staphylococcus aureus P4423 by broth microdilution assay
[5] = test system: Staphylococcus aureus; assay: Antibacterial activity against Staphylococcus aureus MTCC 96 by broth microdilution assay
[6] = test system: Staphylococcus aureus; assay: Antibacterial activity against clinical isolates of methicillin-resistant Staphylococcus aureus P4650 by broth microdilution assay
[7] = test system: Staphylococcus aureus; assay: Antibacterial activity against clinical isolates of methicillin-resistant Staphylococcus aureus ST2071 by broth microdilution assay

Structure (SMILES)	MIC [1] [µg/mL]	MIC [2] [µg/mL]	MIC [3] [µg/mL]	MIC [4] [µg/mL]	MIC [5] [µg/mL]	MIC [6] [µg/mL]	MIC [7] [µg/mL]
COc1cc(OC)c([C@@H]2COc3c(cc(C=O)c4c3C=CC(C)(C)O4)C2)cc1C=O	> 100	> 100	> 100	> 100	> 100	> 100	> 100
COc1cc(OC)c([C@@H]2COc3c(ccc4c3C=CC(C)(C)O4)C2)cc1/C=C/C(=O)c1ccccc1OC	> 100	> 100	> 100	> 100	> 100	> 100	> 100
COc1cccc(C(=O)/C=C/c2cc([C@@H]3COc4c(cc(/C=C/C(=O)c5cccc(OC)c5)c5c4C=CC(C)(C)O5)C3)c(OC)cc2OC)c1	> 100	> 100	> 100	> 100	> 100	> 100	> 100
COc1ccc(C(=O)/C=C/c2cc([C@@H]3COc4c(cc(/C=C/C(=O)c5ccc(OC)cc5OC)c5c4C=CC(C)(C)O5)C3)c(OC)cc2OC)c(OC)c1	50 (≈ 68.2 µM)	50 (≈ 68.2 µM)	50 (≈ 68.2 µM)	50 (≈ 68.2 µM)	50 (≈ 68.2 µM)	50 (≈ 68.2 µM)	50 (≈ 68.2 µM)
COc1ccc(C(=O)/C=C/c2cc([C@@H]3COc4c(ccc5c4C=CC(C)(C)O5)C3)c(OC)cc2OC)c(OC)c1	25 (≈ 46.1 µM)	25 (≈ 46.1 µM)	25 (≈ 46.1 µM)	25 (≈ 46.1 µM)	12.5 (≈ 23 µM)	12.5 (≈ 23 µM)	25 (≈ 46.1 µM)
COc1cc(OC)c([C@@H]2COc3c(ccc4c3C=CC(C)(C)O4)C2)cc1/C=C/C(=O)c1ccc(OC)c(OC)c1	> 100	> 100	> 100	> 100	100 (≈ 184 µM)	> 100	> 100
COc1ccc(C(=O)/C=C/c2cc3c(c4c2OC(C)(C)C=C4)OC[C@@H](c2ccc(OC)cc2OC)C3)cc1	> 100	> 100	> 100	> 100	> 100	> 100	> 100
COc1ccc([C@@H]2COc3c(ccc4c3C=CC(C)(C)O4)C2)c(OC)c1	> 100	> 100	> 100	> 100	> 100	> 100	> 100
